This note sets out measurements from patent publication US9890171B2, “Aldosterone synthase inhibitors” (Boehringer Ingelheim International GmbH, priority 2014, dated 2018).

Sequence of aldosterone synthase (CYP11B2) (A0A2K5UPL9 1-503): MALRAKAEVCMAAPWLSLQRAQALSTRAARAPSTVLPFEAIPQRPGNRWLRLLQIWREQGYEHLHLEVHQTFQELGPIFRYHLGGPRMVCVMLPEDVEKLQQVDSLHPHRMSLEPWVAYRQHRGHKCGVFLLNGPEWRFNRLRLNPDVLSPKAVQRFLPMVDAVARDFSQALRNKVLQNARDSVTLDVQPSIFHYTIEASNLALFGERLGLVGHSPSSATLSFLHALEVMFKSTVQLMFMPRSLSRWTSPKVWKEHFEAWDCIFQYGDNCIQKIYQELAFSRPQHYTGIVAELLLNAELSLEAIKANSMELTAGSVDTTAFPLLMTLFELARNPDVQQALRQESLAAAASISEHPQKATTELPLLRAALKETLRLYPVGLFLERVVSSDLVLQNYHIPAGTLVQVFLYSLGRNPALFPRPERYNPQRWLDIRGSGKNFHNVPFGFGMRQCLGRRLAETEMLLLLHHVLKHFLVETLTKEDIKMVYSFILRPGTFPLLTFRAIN

In the assay the target is aldosterone synthase (CYP11B2) (Macaca fascicularis, UniProt A0A2K5UPL9). The assay is described as follows: aldosterone synthase inhibition assay. As to conditions: cynomolgus adrenal gland mitochondria, 2 μM corticosterone, aldosterone quantified by mass spectrometry. The assay is classed as biochemical, cynomolgus monkey. Put shortly:
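Cynomolgus adrenal mitochondria ([…]) used as CYP11B2 source with 2 μM corticosterone in 100 mM potassium phosphate pH 7.4, 1% DMSO; reaction started with 1 mM NADPH, run 60-90 min at 37° C. Aldosterone measured by mass spectrometry; IC50 from 4-parameter logistic fit, no-NADPH blank as 0%.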
Usually IC50 stands for the concentration that inhibits the measured activity by half. Low readings indicate higher potency, high ones lower potency. As for `CCS(=O)(=O)NC1COCc2c(-c3ccc4onc(C)c4c3)cncc21` (single isomer, unassigned) [Compound 159, Ethanesulfonic acid [8-(3-methyl-benzo[d]isoxazol-5-yl)-3,4-dihydro-1H-pyrano[4,3-c]pyridin-4-yl]-amide], half-maximal inhibition (IC50) was put at 797 nM.

`NC(=O)c1cccc2cc(-c3cncc4c3COCC4O)cnc12` (single isomer, unassigned) [Compound 104, 3-(4-Hydroxy-3,4-dihydro-1H-pyrano[4,3-c]pyridin-8-yl)-quinoline-8-carboxylic acid amide]: it took 81 nM to reach half-maximal inhibition (IC50).

In turn, `Cc1nnc2ccc(-c3cncc4c3COCC4O)cn12` (single isomer, unassigned) [Compound 97, 8-(3-Methyl-[1,2,4]triazolo[4,3-a]pyridin-6-yl)-3,4-dihydro-1H-pyrano[4,3-c]pyridin-4-ol] gave an IC50 of 205 nM.

The molecule `Cn1ncc2ccc(-c3cncc4c3COCC4O)cc21` (single isomer, unassigned) [Compound 44, 8-(1-Methyl-1H-indazol-6-yl)-3,4-dihydro-1H-pyrano[4,3-c]pyridin-4-ol] came in with a 50% inhibitory concentration (IC50) of 8.5 nM.

In the case of `OC1COCc2c(-c3cnc4[nH]ccc4c3)cncc21` (single isomer, unassigned) [Compound 40, 8-(1H-Pyrrolo[2,3-b]pyridin-5-yl)-3,4-dihydro-1H-pyrano[4,3-c]pyridin-4-ol], the midpoint of inhibition, the IC50, lay at 186 nM.

The molecule `O=c1ccc2cc(-c3cncc4c3COCC4O)ccc2o1` (single isomer, unassigned) [Compound 126, 6-(4-Hydroxy-3,4-dihydro-1H-pyrano[4,3-c]pyridin-8-yl)-chromen-2-one] yielded an IC50 of 14 nM.

The molecule `Cn1ncc2ccc(-c3cncc4c3COCC4O)cc21` (single isomer, unassigned) [Compound 29, 8-(1-Methyl-1H-indazol-6-yl)-3,4-dihydro-1H-pyrano[4,3-c]pyridin-4-ol] yielded a 50% inhibitory concentration (IC50) of 48.6 nM.

For `CCS(=O)(=O)NC1COCc2c(-c3ccc4c(c3)C(F)(F)CCO4)cncc21` (single isomer, unassigned) [Compound 144, Ethanesulfonic acid [8-(4,4-difluoro-chroman-6-yl)-3,4-dihydro-1H-pyrano[4,3-c]pyridin-4-yl]-amide], the midpoint of inhibition, the IC50, lay at 470 nM.

For the molecule `OC1COCc2c(-c3ccc4scnc4c3)cncc21` (single isomer, unassigned) [Compound 20, 8-Benzothiazol-5-yl-3,4-dihydro-1H-pyrano[4,3-c]pyridin-4-ol], it took 681 nM to reach half-maximal inhibition (IC50).

`CCS(=O)(=O)NC1COCc2c(-c3cc4c(cnn4C)cc3F)cncc21` (single isomer, unassigned) [Compound 195, Ethanesulfonic acid [8-(5-fluoro-1-methyl-1H-indazol-6-yl)-3,4-dihydro-1H-pyrano[4,3-c]pyridin-4-yl]-amide] returned an IC50 of 140 nM.

In turn, `Cn1nc(F)c2ccc(-c3cncc4c3COCC4O)cc21` (single isomer, unassigned) [Compound 55, 8-(3-Fluoro-1-methyl-1H-indazol-6-yl)-3,4-dihydro-1H-pyrano[4,3-c]pyridin-4-ol] came in with a half-maximal inhibitory concentration (IC50) of 7.6 nM.

Turning to `O=C1CCc2cc(-c3cncc4c3COCC4O)ccc2N1` (single isomer, unassigned) [Compound 1, 6-(4-Hydroxy-3,4-dihydro-1H-pyrano[4,3-c]pyridin-8-yl)-3,4-dihydro-1H-quinolin-2-one], the IC50 came out at 28.9 nM.

`CCC(=O)NC1COCc2c(-c3ccc4c(c3)C(O)CCO4)cncc21` (single isomer, unassigned) [Compound 135, N-[8-(4-Hydroxy-chroman-6-yl)-3,4-dihydro-1H-pyrano[4,3-c]pyridin-4-yl]-propionamide] returned an IC50 of 341 nM.

On to `O=C1NCCOc2cc(-c3cncc4c3COCC4O)ccc21` (single isomer, unassigned) [Compound 145, 8-(4-Hydroxy-3,4-dihydro-1H-pyrano[4,3-c]pyridin-8-yl)-3,4-dihydro-2H-benzo[f][1,4]oxazepin-5-one], for which the midpoint of inhibition, the IC50, lay at 738 nM.

Turning to `OC1COCc2c(-c3ccc4cc[nH]c4c3)cncc21` (single isomer, unassigned) [Compound 21, 8-(1H-Indol-6-yl)-3,4-dihydro-1H-pyrano[4,3-c]pyridin-4-ol], it took 195 nM to reach half-maximal inhibition (IC50).

`Cn1ncc2c(F)cc(-c3cncc4c3COCC4(C)O)cc21` (single isomer, unassigned) [Compound 175, 8-(4-Fluoro-1-methyl-1H-indazol-6-yl)-4-methyl-3,4-dihydro-1H-pyrano[4,3-c]pyridin-4-ol]: the IC50 was 21.6 nM.

`Cc1noc2ccc(-c3cncc4c3COCC4O)cc12` (single isomer, unassigned) [Compound 94, 8-(3-Methyl-benzo[d]isoxazol-5-yl)-3,4-dihydro-1H-pyrano[4,3-c]pyridin-4-ol] had an IC50 of 10.1 nM.

The molecule `O=C1CCOc2cc(-c3cncc4c3COCC4O)ccc21` (single isomer, unassigned) [Compound 123, 7-(4-Hydroxy-3,4-dihydro-1H-pyrano[4,3-c]pyridin-8-yl)-chroman-4-one] came in with an IC50 of 16.3 nM.

`CCS(=O)(=O)NC1COCc2c(-c3ccc4c(c3)C(O)CCO4)cncc21` (single isomer, unassigned) [Compound 136, Ethanesulfonic acid [8-(4-hydroxy-chroman-6-yl)-3,4-dihydro-1H-pyrano[4,3-c]pyridin-4-yl]-amide] showed a concentration for half-maximal inhibition (IC50) of 10000 nM.

Molecule `CCS(=O)(=O)NC1COCc2c(-c3ccc4nnn(C)c4c3)cncc21` (single isomer, unassigned) [Compound 65, Ethanesulfonic acid [8-(3-methyl-3H-benzotriazol-5-yl)-3,4-dihydro-1H-pyrano[4,3-c]pyridin-4-yl]-amide] showed an IC50 of 36.1 nM.

Molecule `CC(C)(O)CC(=O)NC1COCc2c(-c3ccc4c(c3)CCC4=O)cncc21` (single isomer, unassigned) [Compound 153, 3-Hydroxy-3-methyl-N-[8-(1-oxo-indan-5-yl)-3,4-dihydro-1H-pyrano[4,3-c]pyridin-4-yl]-butyramide] displayed a half-inhibitory concentration (IC50) of 70 nM.

Molecule `OC1c2cncc(-c3ccc4c(c3)COCCO4)c2COC12CC2` (single isomer, unassigned) [Compound 112, 8-(3,5-dihydro-2H-1,4-benzo[e][1,4]dioxepin-7-yl)spiro[1,4-dihydropyrano[4,3-c]pyridine-3,1′-cyclopropane]-4-ol] registered an IC50 of 40.9 nM.

The molecule `Cn1ncc2ccc(-c3cncc4c3COC3(CC3)C4O)cc21` (single isomer, unassigned) [Compound 17, 8-(1-methylindazol-6-yl)spiro[1,4-dihydropyrano[4,3-c]pyridine-3,1′-cyclopropane]-4-ol] came in with an IC50 of 8 nM.

On to `CCS(=O)(=O)NC1COCc2c(-c3ccc4c(c3)COCC4(F)F)cncc21` (single isomer, unassigned) [Compound 196, Ethanesulfonic acid [8-(4,4-difluoro-isochroman-7-yl)-3,4-dihydro-1H-pyrano[4,3-c]pyridin-4-yl]-amide], for which the IC50 turned out to be 330 nM.

Consider `Cc1n[nH]c2cc(-c3cncc4c3COCC4O)ccc12` (single isomer, unassigned) [Compound 13, 8-(3-Methyl-1H-indazol-6-yl)-3,4-dihydro-1H-pyrano[4,3-c]pyridin-4-ol], for which it took 81 nM to reach half-maximal inhibition (IC50).

Regarding `O=C1NCCc2cc(-c3cncc4c3COCC4O)ccc21` (single isomer, unassigned) [Compound 120, 6-(4-Hydroxy-3,4-dihydro-1H-pyrano[4,3-c]pyridin-8-yl)-3,4-dihydro-2H-isoquinolin-1-one], inhibition was half-maximal at 790 nM (IC50).

In the case of `O=C1CCCc2ccc(-c3cncc4c3COCC4O)cc21` (single isomer, unassigned) [Compound 115, 7-(4-Hydroxy-3,4-dihydro-1H-pyrano[4,3-c]pyridin-8-yl)-3,4-dihydro-2H-naphthalen-1-one], 580 nM corresponded to half-maximal inhibition (IC50).

`Cn1ncc2cc(-c3cncc4c3COCC4O)ccc21` (single isomer, unassigned) [Compound 23, 8-(1-Methyl-1H-indazol-5-yl)-3,4-dihydro-1H-pyrano[4,3-c]pyridin-4-ol] yielded a half-maximal inhibitory concentration (IC50) of 195 nM.

`Cc1n[nH]c2ccc(-c3cncc4c3COCC4O)cc12` (single isomer, unassigned) [Compound 12, 8-(3-Methyl-1H-indazol-5-yl)-3,4-dihydro-1H-pyrano[4,3-c]pyridin-4-ol] showed an IC50 of 21 nM.

In turn, `Cn1nnc2ccc(-c3cncc4c3COCC4O)cc21` (single isomer, unassigned) [Compound 14, 8-(3-Methyl-3H-benzotriazol-5-yl)-3,4-dihydro-1H-pyrano[4,3-c]pyridin-4-ol] had a half-maximal inhibitory concentration (IC50) of 15.7 nM.

In turn, `O=C1CCc2cc(-c3cncc4c3COCC4O)ccc2N1` (single isomer, unassigned) [Compound 2, 6-(4-Hydroxy-3,4-dihydro-1H-pyrano[4,3-c]pyridin-8-yl)-3,4-dihydro-1H-quinolin-2-one] displayed an IC50 of 101 nM.

Turning to `CC(=O)NC1COCc2c(-c3ccc4c(c3)CCC4=O)cncc21` (single isomer, unassigned) [Compound 151, N-[8-(1-Oxo-indan-5-yl)-3,4-dihydro-1H-pyrano[4,3-c]pyridin-4-yl]-acetamide], the IC50 came to 4880 nM.

Molecule `CCS(=O)(=O)NC1COCc2c(-c3ccc4c(Cl)n[nH]c4c3)cncc21` (single isomer, unassigned) [Compound 129, Ethanesulfonic acid [8-(3-chloro-1H-indazol-6-yl)-3,4-dihydro-1H-pyrano[4,3-c]pyridin-4-yl]-amide] showed an IC50 of 45.9 nM.

In turn, `NC(=O)N1CCCc2cc(-c3cncc4c3C(O)COC4)cnc21` (single isomer, unassigned) [Compound 161, 6-(4-Hydroxy-3,4-dihydro-1H-pyrano[3,4-c]pyridin-5-yl)-3,4-dihydro-2H-[1,8]naphthyridine-1-carboxylic acid amide] came in with a half-maximal inhibitory concentration (IC50) of 35.3 nM.
